# Data taken from the NIST ThermoML archive (doi:10.1021/je800110r).
# ± gives the expanded uncertainty stated by the source.
# Settings: 313.14 K, Liquid, Vibrating tube method
compound,measurement,setting,value
CCCCCCCCCC [decane],mass density,24173 kPa,733.5 ± 2.1 kg/m3
same,mass density,24196 kPa,733.5 ± 2.1 kg/m3
same,mass density,24223 kPa,733.4 ± 2.1 kg/m3
same,mass density,24245 kPa,733.5 ± 2.1 kg/m3
same,mass density,24268 kPa,733.6 ± 2.1 kg/m3
same,mass density,24304 kPa,733.6 ± 2.1 kg/m3
same,mass density,24331 kPa,733.6 ± 2.1 kg/m3
same,mass density,24351 kPa,733.6 ± 2.1 kg/m3
same,mass density,24391 kPa,733.7 ± 2.1 kg/m3
same,mass density,24420 kPa,733.7 ± 2.1 kg/m3
same,mass density,24455 kPa,733.7 ± 2.1 kg/m3
same,mass density,24491 kPa,733.7 ± 2.1 kg/m3
same,mass density,24527 kPa,733.7 ± 2.1 kg/m3
same,mass density,24559 kPa,733.8 ± 2.1 kg/m3
same,mass density,24591 kPa,733.7 ± 2.1 kg/m3
same,mass density,24632 kPa,733.9 ± 2.1 kg/m3
same,mass density,24668 kPa,733.9 ± 2.1 kg/m3
same,mass density,24704 kPa,733.9 ± 2.1 kg/m3
same,mass density,24729 kPa,733.9 ± 2.1 kg/m3
same,mass density,24758 kPa,734 ± 2.1 kg/m3
same,mass density,24787 kPa,733.9 ± 2.1 kg/m3
same,mass density,24824 kPa,733.9 ± 2.1 kg/m3
same,mass density,24854 kPa,734 ± 2.1 kg/m3
same,mass density,24889 kPa,734 ± 2.1 kg/m3
same,mass density,24918 kPa,734.1 ± 2.1 kg/m3
same,mass density,24952 kPa,734 ± 2.1 kg/m3
same,mass density,24983 kPa,734 ± 2.1 kg/m3
same,mass density,25018 kPa,734.1 ± 2.1 kg/m3
same,mass density,25049 kPa,734.2 ± 2.1 kg/m3
same,mass density,25080 kPa,734.1 ± 2.1 kg/m3
same,mass density,25107 kPa,734.2 ± 2.1 kg/m3
same,mass density,25129 kPa,734.2 ± 2.1 kg/m3
same,mass density,25161 kPa,734.2 ± 2.1 kg/m3
same,mass density,25188 kPa,734.2 ± 2.1 kg/m3
same,mass density,25215 kPa,734.2 ± 2.1 kg/m3
same,mass density,25255 kPa,734.3 ± 2.1 kg/m3
same,mass density,25287 kPa,734.3 ± 2.1 kg/m3
same,mass density,25323 kPa,734.3 ± 2.1 kg/m3
same,mass density,25351 kPa,734.4 ± 2.1 kg/m3
same,mass density,25387 kPa,734.3 ± 2.1 kg/m3
same,mass density,25415 kPa,734.3 ± 2.1 kg/m3
same,mass density,25452 kPa,734.5 ± 2.1 kg/m3
same,mass density,25489 kPa,734.4 ± 2.1 kg/m3
same,mass density,25558 kPa,734.6 ± 2.1 kg/m3
same,mass density,25618 kPa,734.5 ± 2.1 kg/m3
same,mass density,25650 kPa,734.6 ± 2.1 kg/m3
same,mass density,25684 kPa,734.6 ± 2.1 kg/m3
same,mass density,25712 kPa,734.5 ± 2.1 kg/m3
same,mass density,25750 kPa,734.5 ± 2.1 kg/m3
same,mass density,25778 kPa,734.6 ± 2.1 kg/m3
same,mass density,25811 kPa,734.6 ± 2.1 kg/m3
same,mass density,25840 kPa,734.7 ± 2.1 kg/m3
same,mass density,25878 kPa,734.8 ± 2.1 kg/m3
same,mass density,27095 kPa,735.5 ± 2.1 kg/m3
same,mass density,27127 kPa,735.5 ± 2.1 kg/m3
same,mass density,27155 kPa,735.6 ± 2.1 kg/m3
same,mass density,27178 kPa,735.5 ± 2.1 kg/m3
same,mass density,27206 kPa,735.6 ± 2.1 kg/m3
same,mass density,27239 kPa,735.7 ± 2.1 kg/m3
same,mass density,27267 kPa,735.7 ± 2.1 kg/m3
same,mass density,27295 kPa,735.5 ± 2.1 kg/m3
same,mass density,27328 kPa,735.7 ± 2.1 kg/m3
same,mass density,27370 kPa,735.7 ± 2.1 kg/m3
same,mass density,27403 kPa,735.7 ± 2.1 kg/m3
same,mass density,27432 kPa,735.8 ± 2.1 kg/m3
same,mass density,27465 kPa,735.8 ± 2.1 kg/m3
same,mass density,27498 kPa,735.7 ± 2.1 kg/m3
same,mass density,27527 kPa,735.8 ± 2.1 kg/m3
same,mass density,27560 kPa,735.9 ± 2.1 kg/m3
same,mass density,27599 kPa,735.8 ± 2.1 kg/m3
same,mass density,27627 kPa,735.8 ± 2.1 kg/m3
same,mass density,27661 kPa,735.9 ± 2.1 kg/m3
same,mass density,27685 kPa,735.8 ± 2.1 kg/m3
same,mass density,27728 kPa,735.9 ± 2.1 kg/m3
same,mass density,27767 kPa,736 ± 2.1 kg/m3
same,mass density,27811 kPa,736 ± 2.1 kg/m3
same,mass density,27850 kPa,735.9 ± 2.1 kg/m3
same,mass density,27898 kPa,736.1 ± 2.1 kg/m3
same,mass density,27932 kPa,736.2 ± 2.1 kg/m3
same,mass density,29093 kPa,736.8 ± 2.1 kg/m3
same,mass density,29131 kPa,736.9 ± 2.1 kg/m3
same,mass density,29195 kPa,737 ± 2.1 kg/m3
same,mass density,29243 kPa,737 ± 2.1 kg/m3
same,mass density,29286 kPa,736.9 ± 2.1 kg/m3
same,mass density,29330 kPa,737.1 ± 2.1 kg/m3
same,mass density,29369 kPa,737.1 ± 2.1 kg/m3
same,mass density,29414 kPa,737 ± 2.1 kg/m3
same,mass density,29452 kPa,737.1 ± 2.1 kg/m3
same,mass density,29496 kPa,737.2 ± 2.1 kg/m3
same,mass density,29524 kPa,737.1 ± 2.1 kg/m3
same,mass density,29568 kPa,737.2 ± 2.1 kg/m3
same,mass density,29611 kPa,737.2 ± 2.1 kg/m3
same,mass density,29645 kPa,737.3 ± 2.1 kg/m3
same,mass density,29684 kPa,737.2 ± 2.1 kg/m3
same,mass density,29729 kPa,737.2 ± 2.1 kg/m3
same,mass density,29763 kPa,737.3 ± 2.1 kg/m3
same,mass density,29809 kPa,737.3 ± 2.1 kg/m3
same,mass density,29845 kPa,737.3 ± 2.1 kg/m3
same,mass density,29878 kPa,737.3 ± 2.1 kg/m3
same,mass density,29923 kPa,737.4 ± 2.1 kg/m3
same,mass density,29963 kPa,737.5 ± 2.1 kg/m3
same,mass density,30003 kPa,737.5 ± 2.1 kg/m3
same,mass density,30049 kPa,737.5 ± 2.1 kg/m3
same,mass density,30089 kPa,737.6 ± 2.1 kg/m3
same,mass density,30124 kPa,737.6 ± 2.1 kg/m3
same,mass density,30171 kPa,737.5 ± 2.1 kg/m3
same,mass density,30212 kPa,737.5 ± 2.1 kg/m3
same,mass density,30248 kPa,737.6 ± 2.1 kg/m3
same,mass density,30281 kPa,737.7 ± 2.1 kg/m3
same,mass density,30319 kPa,737.6 ± 2.1 kg/m3
same,mass density,30352 kPa,737.7 ± 2.1 kg/m3
same,mass density,30401 kPa,737.8 ± 2.1 kg/m3
same,mass density,30433 kPa,737.7 ± 2.1 kg/m3
same,mass density,30466 kPa,737.8 ± 2.1 kg/m3
same,mass density,30504 kPa,737.8 ± 2.1 kg/m3
same,mass density,30542 kPa,737.8 ± 2.1 kg/m3
same,mass density,30575 kPa,737.8 ± 2.1 kg/m3
same,mass density,30614 kPa,737.9 ± 2.1 kg/m3
same,mass density,31015 kPa,738.1 ± 2.1 kg/m3
same,mass density,31049 kPa,738 ± 2.1 kg/m3
same,mass density,31124 kPa,738.2 ± 2.1 kg/m3
same,mass density,31165 kPa,738.2 ± 2.1 kg/m3
same,mass density,31205 kPa,738.3 ± 2.1 kg/m3
same,mass density,31251 kPa,738.3 ± 2.1 kg/m3
same,mass density,31303 kPa,738.3 ± 2.1 kg/m3
same,mass density,31332 kPa,738.3 ± 2.1 kg/m3
same,mass density,31379 kPa,738.3 ± 2.1 kg/m3
same,mass density,32818 kPa,739.4 ± 2.1 kg/m3
same,mass density,32847 kPa,739.2 ± 2.1 kg/m3
same,mass density,32891 kPa,739.4 ± 2.1 kg/m3
same,mass density,32920 kPa,739.3 ± 2.1 kg/m3
same,mass density,32965 kPa,739.4 ± 2.1 kg/m3
same,mass density,33007 kPa,739.5 ± 2.1 kg/m3
same,mass density,33037 kPa,739.5 ± 2.1 kg/m3
same,mass density,33079 kPa,739.5 ± 2.1 kg/m3
same,mass density,33103 kPa,739.6 ± 2.1 kg/m3
same,mass density,33135 kPa,739.5 ± 2.1 kg/m3
